Experimental data as given in PubChem BioAssay AID493146 (Sanford-Burnham Center for Chemical Genomics, 2011).
The source made the active and inactive calls. No rule for the calls is given here.

Molecular target: intestinal alkaline phosphatase (Alpi), Mus musculus
Test: activators of mouse IAP enzyme, SAR follow-up, biochemical, luminescence (AID 493146)
Details: purified mouse IAP, luminescent substrate, activation

Compound | EC50
COc1ccc(N2CCN(C(=O)CN3C(=O)/C(=C\c4ccco4)SC3=S)CC2)cc1 | > 100 µM (inactive)
COC(=O)NNC(=O)c1cc(OC)c(OC)c(OC)c1 | > 100 µM (inactive)
CCOc1ccccc1NC(=O)CCNS(=O)(=O)c1ccc2[nH]c(=O)oc2c1 | > 100 µM (inactive)
O=C(CN1C(=O)/C(=C/c2ccco2)SC1=S)NCCc1ccc(O)cc1 | > 100 µM (inactive)
O=C(c1ccco1)N1CCN(S(=O)(=O)c2ccc3[nH]c(=O)oc3c2)CC1 | > 100 µM (inactive)
CC(C(=O)NCCc1ccc(O)cc1)N1C(=O)/C(=C/c2ccco2)SC1=S (centres undefined) | > 100 µM (inactive)
Cc1ccc(/C=C2\SC(=S)N(C3CCS(=O)(=O)C3)C2=O)o1 (centres undefined) | > 100 µM (inactive)
O=C(CCNS(=O)(=O)c1ccc2[nH]c(=O)oc2c1)Nc1cccc(-c2ccno2)c1 | > 100 µM (inactive)
O=[N+]([O-])c1ccc(NC(=S)NCCC(c2ccccc2)c2ccccc2)cc1 | > 100 µM (inactive)
COc1cccc(CNC(=O)CCNS(=O)(=O)c2ccc3[nH]c(=O)oc3c2)c1 | > 100 µM (inactive)
Cc1ccc(/C=N/NC(=O)c2cc(O)c(O)c(O)c2)cc1 | > 100 µM (inactive)
Cc1ccc(NC(=O)CCNS(=O)(=O)c2ccc3[nH]c(=O)oc3c2)c(C)c1 | > 100 µM (inactive)
CC(C(=O)Nc1cccc(C(=O)O)c1)N1C(=O)/C(=C\c2ccco2)SC1=S (centres undefined) | > 100 µM (inactive)
Cc1ccc(C)c(NC(=O)CCNS(=O)(=O)c2ccc3[nH]c(=O)oc3c2)c1 | > 100 µM (inactive)
O=C(C1CCN(S(=O)(=O)c2ccc3[nH]c(=O)oc3c2)CC1)N1CC=C(c2ccccc2)CC1 | > 100 µM (inactive)
O=C(NCCc1ccc(Cl)cc1)C1CCCN(S(=O)(=O)c2ccc3[nH]c(=O)oc3c2)C1 (centres undefined) | > 100 µM (inactive)

Now from value to compound:

EC50 | Compound
> 100 µM (inactive) | N#Cc1c(SCC(=O)Nc2ccc(Cl)cc2Cl)sc2c(O)cc(=O)[nH]c12
> 100 µM (inactive) | N#Cc1c(SCC(=O)Nc2nncs2)sc2c(O)cc(=O)[nH]c12
> 100 µM (inactive) | CC(C)c1ccc(NC(=O)CCNS(=O)(=O)c2ccc3[nH]c(=O)oc3c2)cc1
> 100 µM (inactive) | N#Cc1c(SCC(=O)Nc2ccc(C(F)(F)F)cc2)sc2c(O)cc(=O)[nH]c12
> 100 µM (inactive) | N#Cc1c(SCC(=O)Nc2nccs2)sc2c(O)cc(=O)[nH]c12
> 100 µM (inactive) | COc1ccc(NC(=O)CCNS(=O)(=O)c2ccc3[nH]c(=O)oc3c2)cc1Cl
> 100 µM (inactive) | CCCSc1nnc(NC(=O)CSc2sc3c(O)cc(=O)[nH]c3c2C#N)s1
> 100 µM (inactive) | O=C(CCN1C(=O)/C(=C/c2ccco2)SC1=S)Nc1ccc(C(=O)O)c(O)c1
